Values joined by “and” are separate entries in the source; they are usually repeats but may differ in a detail not shown here. Equal entries are not always repeated. Toxic doses and inconclusive results are not listed.
Test system: CD2F1 mice, L1210 leukemia ip, survival T/C
Assay: NCI In Vivo Anticancer Drug Screen. Data for tumor model L1210 Leukemia (intraperitoneal) in CD2F1 (CDF1) mice
Conditions: higher = longer survival
Procedure, shortened: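 Mice carrying a transplanted tumor received test compound or vehicle alone. The value is the measurement in the treated group divided by that in the vehicle-treated control group.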

[1] = endpoint: mean survival time, dose: 100.0 mg/kg/injection, schedule: Q04DX003 (ip), vehicle: saline with Tween-80
[2] = endpoint: mean survival time, dose: 200.0 mg/kg/injection, schedule: Q04DX003 (ip), vehicle: saline with Tween-80
[3] = endpoint: mean survival time, dose: 400.0 mg/kg/injection, schedule: Q04DX003 (ip), vehicle: saline with Tween-80
[4] = endpoint: mean survival time, dose: 100.0 mg/kg/injection, schedule: Q01DX009 (ip), vehicle: saline with Tween-80
[5] = endpoint: mean survival time, dose: 200.0 mg/kg/injection, schedule: Q01DX009 (ip), vehicle: saline with Tween-80
[6] = endpoint: mean survival time, dose: 400.0 mg/kg/injection, schedule: Q01DX009 (ip), vehicle: saline with Tween-80

SMILES: CC(O)C1OC(n2cnc3c(N)ncnc32)CC1N (centres undefined)
- T/C (endpoint: mean survival time, dose: 12.5 mg/kg/injection, schedule: Q01DX005 (ip), vehicle: distilled water + Tween-80): 101 % of control
- T/C (endpoint: mean survival time, dose: 25.0 mg/kg/injection, schedule: Q01DX005 (ip), vehicle: distilled water + Tween-80): 103 % of control
- T/C (endpoint: mean survival time, dose: 50.0 mg/kg/injection, schedule: Q01DX005 (ip), vehicle: distilled water + Tween-80): 100 % of control
- T/C (endpoint: mean survival time, dose: 100.0 mg/kg/injection, schedule: Q01DX005 (ip), vehicle: distilled water + Tween-80): 100 % of control
- T/C (endpoint: mean survival time, dose: 200.0 mg/kg/injection, schedule: Q01DX005 (ip), vehicle: distilled water + Tween-80): 100 % of control

SMILES: CC(C)C(C(O)c1ccccc1)[N+](=O)[O-] (centres undefined)
- T/C (endpoint: mean survival time, dose: 100.0 mg/kg/injection, schedule: Q01DX009 (ip), vehicle: saline sonified): 102 % of control
- T/C [1]: 102 % of control
- T/C (endpoint: mean survival time, dose: 200.0 mg/kg/injection, schedule: Q01DX009 (ip), vehicle: saline sonified): 102 % of control
- T/C [2]: 96 % of control
- T/C (endpoint: mean survival time, dose: 400.0 mg/kg/injection, schedule: Q01DX009 (ip), vehicle: saline sonified): 100 % of control
- T/C [3]: 100 % of control

SMILES: CCn1c(COc2ccc(Br)cc2)c(COC(=O)c2cccc(Cl)c2)c2ccccc21
- T/C [4]: 94 % of control
- T/C [5]: 92 % of control
- T/C [6]: 94 % of control

SMILES: NC(=O)C(=O)N/N=C/c1ccc2c(c1)CCC2
- T/C (endpoint: mean survival time, dose: 12.5 mg/kg/injection, schedule: Q04DX003 (ip), vehicle: saline with Tween-80): 97 % of control
- T/C (endpoint: mean survival time, dose: 25.0 mg/kg/injection, schedule: Q04DX003 (ip), vehicle: saline with Tween-80): 94 % of control
- T/C (endpoint: mean survival time, dose: 50.0 mg/kg/injection, schedule: Q04DX003 (ip), vehicle: saline with Tween-80): 92 % of control

SMILES: O=[N+]([O-])c1ccccc1SSc1ccccc1[N+](=O)[O-]
- T/C [1]: 97 % of control
- T/C [2]: 95 % of control
- T/C [3]: 104 % of control

SMILES: Cn1cnc(C(=N)[Se])c1N
- T/C (endpoint: mean survival time, dose: 0.78 mg/kg/injection, schedule: Q01DX005 (ip), vehicle: water): 90 % of control
- T/C (endpoint: mean survival time, dose: 1.56 mg/kg/injection, schedule: Q01DX005 (ip), vehicle: water): 102 % of control
- T/C (endpoint: mean survival time, dose: 3.13 mg/kg/injection, schedule: Q01DX005 (ip), vehicle: water): 100 % of control
- T/C (endpoint: mean survival time, dose: 6.25 mg/kg/injection, schedule: Q01DX005 (ip), vehicle: water): 90 % of control
- T/C (endpoint: mean survival time, dose: 12.5 mg/kg/injection, schedule: Q01DX005 (ip), vehicle: water): 100 % of control

SMILES: O=C1OCCC1n1ccc(=O)[nH]c1=O (centres undefined)
- T/C (endpoint: mean survival time, dose: 100.0 mg/kg/injection, schedule: Q04DX003 (ip), vehicle: Klucel (hydroxypropylcellulose) (HPC)): 102 % of control
- T/C (endpoint: mean survival time, dose: 200.0 mg/kg/injection, schedule: Q04DX003 (ip), vehicle: Klucel (hydroxypropylcellulose) (HPC)): 96 % of control
- T/C (endpoint: mean survival time, dose: 400.0 mg/kg/injection, schedule: Q04DX003 (ip), vehicle: Klucel (hydroxypropylcellulose) (HPC)): 102 % of control

SMILES: CCOC(=O)C(N)Cc1ccc(OC)c(N(CCCl)CCCl)c1 (centres undefined)
- T/C (endpoint: mean survival time, dose: 1.1 mg/kg/injection, schedule: Q01DX001 (ip), vehicle: carboxymethylcellulose (CMC)): 122 % of control
- T/C (endpoint: mean survival time, dose: 1.7 mg/kg/injection, schedule: Q01DX001 (ip), vehicle: carboxymethylcellulose (CMC)): 120 % of control

SMILES: N#C/C(=N\Nc1ccc(S(=O)(=O)O)cc1)C(N)=O
- T/C [4]: 95 % of control
- T/C [5]: 91 % of control
- T/C [6]: 94 % of control

SMILES: COc1ccc(N=c2ssc(SC)c2-c2ccccc2)cc1
- T/C (endpoint: mean survival time, dose: 100.0 mg/kg/injection, schedule: Q01DX001 (ip), vehicle: saline with Tween-80): 102 % of control
- T/C [4]: 103 % of control
- T/C [1]: 101 % of control
- T/C (endpoint: mean survival time, dose: 200.0 mg/kg/injection, schedule: Q01DX001 (ip), vehicle: saline with Tween-80): 100 % of control
- T/C [5]: 102 % of control
- T/C [2]: 102 % of control
- T/C (endpoint: mean survival time, dose: 400.0 mg/kg/injection, schedule: Q01DX001 (ip), vehicle: saline with Tween-80): 102 % of control
- T/C [6]: 103 % of control
- T/C [3]: 98 % of control

SMILES: CS(=O)(=O)c1ncc[nH]1
- T/C [1]: 100 % of control
- T/C [2]: 109 % of control
- T/C [3]: 109 % of control

SMILES: Oc1ccc(Cl)cc1Cn1ccnc1
- T/C (endpoint: mean survival time, dose: 50.0 mg/kg/injection, schedule: Q01DX001 (ip), vehicle: saline): 111 % of control
- T/C (endpoint: mean survival time, dose: 50.0 mg/kg/injection, schedule: Q01DX009 (ip), vehicle: saline): 104 % of control
- T/C (endpoint: mean survival time, dose: 50.0 mg/kg/injection, schedule: Q04DX003 (ip), vehicle: saline): 106 % of control
- T/C (endpoint: mean survival time, dose: 100.0 mg/kg/injection, schedule: Q01DX001 (ip), vehicle: saline): 100 % of control
- T/C (endpoint: mean survival time, dose: 100.0 mg/kg/injection, schedule: Q01DX009 (ip), vehicle: saline): 95 % of control and 110 % of control
- T/C (endpoint: mean survival time, dose: 100.0 mg/kg/injection, schedule: Q04DX002 (ip), vehicle: saline): 115 % of control and 101 % of control
- T/C (endpoint: mean survival time, dose: 100.0 mg/kg/injection, schedule: Q04DX003 (ip), vehicle: saline): 101 % of control
- T/C (endpoint: mean survival time, dose: 200.0 mg/kg/injection, schedule: Q01DX001 (ip), vehicle: saline): 104 % of control
- T/C (endpoint: mean survival time, dose: 200.0 mg/kg/injection, schedule: Q01DX009 (ip), vehicle: saline): 93 % of control and 109 % of control
- T/C (endpoint: mean survival time, dose: 200.0 mg/kg/injection, schedule: Q04DX002 (ip), vehicle: saline): 103 % of control and 112 % of control
- T/C (endpoint: mean survival time, dose: 200.0 mg/kg/injection, schedule: Q04DX003 (ip), vehicle: saline): 113 % of control

SMILES: CSc1ccc(O)c(C)c1
- T/C [1]: 104 % of control
- T/C [5]: 97 % of control
- T/C [2]: 102 % of control
- T/C [3]: 104 % of control

SMILES: Cc1c2c[n+](CCCCCCCC[n+]3ccc4c(C)c5c(c(C)c4c3)c3ccccc3n5CCO)ccc2c(C)c2c1c1ccccc1n2CCO
- T/C (endpoint: mean survival time, dose: 1.56 mg/kg/injection, schedule: Q04DX003 (ip), vehicle: distilled water + Tween-80): 119 % of control
- T/C (endpoint: mean survival time, dose: 6.25 mg/kg/injection, schedule: Q04DX003 (ip), vehicle: distilled water + Tween-80): 150 % of control and 159 % of control
- T/C (endpoint: mean survival time, dose: 12.5 mg/kg/injection, schedule: Q04DX003 (ip), vehicle: distilled water + Tween-80): 114 % of control

SMILES: O=C(O)c1ccc([N+](=O)[O-])cc1C(=O)O.[NH-]C1CCCCC1[NH-].[Pt+2]
- T/C (endpoint: median survival time, dose: 3.12 mg/kg/injection, schedule: Q04DX003 (ip), vehicle: saline): 100 % of control and 110 % of control
- T/C (endpoint: median survival time, dose: 6.25 mg/kg/injection, schedule: Q04DX003 (ip), vehicle: saline): 121 % of control and 110 % of control
- T/C (endpoint: median survival time, dose: 12.5 mg/kg/injection, schedule: Q04DX003 (ip), vehicle: saline): 116 % of control
- T/C (endpoint: median survival time, dose: 50.0 mg/kg/injection, schedule: Q04DX003 (ip), vehicle: saline): 176 % of control
- T/C (endpoint: median survival time, dose: 100.0 mg/kg/injection, schedule: Q04DX003 (ip), vehicle: saline): 183 % of control and 282 % of control
- T/C (endpoint: median survival time, dose: 200.0 mg/kg/injection, schedule: Q04DX003 (ip), vehicle: saline): 97 % of control

SMILES: CCCCCCCCCCCCN=C(N)C(N)=NCCCCCCCCCCCC
- T/C (endpoint: mean survival time, dose: 25.0 mg/kg/injection, schedule: Q04DX002 (ip), vehicle: other): 93 % of control
- T/C (endpoint: mean survival time, dose: 50.0 mg/kg/injection, schedule: Q04DX002 (ip), vehicle: other): 93 % of control
- T/C (endpoint: mean survival time, dose: 100.0 mg/kg/injection, schedule: Q04DX002 (ip), vehicle: other): 116 % of control

SMILES: C#CCN(Cc1ccc2nc(N)[nH]c(=O)c2c1)c1ccc(C(=O)NC(CCC(=O)O)C(=O)O)cc1 (centres undefined)
- T/C (endpoint: median survival time, dose: 7.5 mg/kg/injection, schedule: Q01DX009 (ip), vehicle: sodium bicarbonate): 109 % of control
- T/C (endpoint: median survival time, dose: 15.0 mg/kg/injection, schedule: Q01DX009 (ip), vehicle: sodium bicarbonate): 105 % of control and 109 % of control
- T/C (endpoint: median survival time, dose: 25.0 mg/kg/injection, schedule: Q01DX005 (ip), vehicle: water): 108 % of control
- T/C (endpoint: median survival time, dose: 30.0 mg/kg/injection, schedule: Q01DX009 (ip), vehicle: sodium bicarbonate): 117 % of control and 109 % of control
- T/C (endpoint: median survival time, dose: 50.0 mg/kg/injection, schedule: Q01DX005 (ip), vehicle: water): 109 % of control
- T/C (endpoint: median survival time, dose: 86.4 mg/kg/injection, schedule: Q01DX005 (ip), vehicle: water): 121 % of control
- T/C (endpoint: median survival time, dose: 120.0 mg/kg/injection, schedule: Q01DX009 (ip), vehicle: sodium bicarbonate): 156 % of control and 185 % of control
- T/C (endpoint: median survival time, dose: 144.0 mg/kg/injection, schedule: Q01DX005 (ip), vehicle: water): 162 % of control
- T/C (endpoint: median survival time, dose: 400.0 mg/kg/injection, schedule: Q01DX005 (ip), vehicle: water): 161 % of control

SMILES: CCOC(=O)C(=CNc1cc(C)ccn1)C(=O)OCC
- T/C [4]: 109 % of control
- T/C [5]: 98 % of control
- T/C [6]: 94 % of control
